Patent US9687479B2, “Multisubstituted aromatic compounds as serine protease inhibitors” (VERSEON CORPORATION, priority 2013, dated 2017)

Target: Human thrombin (Homo sapiens (Human), UniProt P00734)
Assay: Thrombin protease activity inhibition assay (chromogenic substrate S-2238)
Format: biochemical
Conditions: 3 nM thrombin, 125 μM S-2238, 10 min pre-incubation, RT
Description: The thrombin activity reported herein (e.g., Table A) was obtained as follows. […] Thrombin was assayed in buffer containing 0.05 M Tris (pH 7.4), 0.015 M NaCl and 0.01% PEG-8000. The final concentration of enzyme used was 3 nM thrombin. […] All assays were performed in 96-well microtiter plates at room temperature (RT). […] Inhibitor IC50 values were determined by adding test compound as ten point, three-fold serial dilutions in buffer solution, as known in the art. The plate was read at 10 minutes after substrate addition. The IC50 was calculated by plotting the percent (%) inhibition against compound concentration and fitting the data to a constrained four parameter sigmoidal curve, as known in the art.

IC50 [nM] | SMILES
< 100 | O=C(Cn1cccc(-c2cc(NCc3ccc(Cl)s3)n(C(=O)c3ccoc3)n2)c1=O)N1CCOCC1 [Cmpd 180, 3-(5-[(5-chlorothiophen-2-yl)methyl]amino-1-[(furan-3-yl)carbonyl]-1H-pyrazol-3-yl)-1-[2-(morpholin-4-yl)-2-oxoethyl]-1,2-dihydropyridin-2-one]
10000 to 100000 | N#CCn1cccc(-c2cc(NCc3ccc(Cl)s3)[nH]n2)c1=O [Cmpd 60, 2-[3-(5-[(5-chlorothiophen-2-yl)methyl]amino-1H-pyrazol-3-yl)-2-oxo-1,2-dihydropyridin-1-yl]acetonitrile]
< 100 | O=C(c1ccoc1)n1nc(-c2cccn(Cc3ccc4ccccc4c3)c2=O)cc1NCc1ccc(Cl)s1 [Cmpd 175, 3-(5-[(5-chlorothiophen-2-yl)methyl]amino-1-[(furan-3-yl)carbonyl]-1H-pyrazol-3-yl)-1-(naphthalen-2-ylmethyl)-1,2-dihydropyridin-2-one]
< 100 | O=C(c1ccsc1)n1nc(-c2cccn(Cc3ccco3)c2=O)cc1NCc1ccc(Cl)s1 [Cmpd 195, 3-(5-[(5-chlorothiophen-2-yl)methyl]amino-1-[(thiophen-3-yl)carbonyl]-1H-pyrazol-3-yl)-1-(furan-2-ylmethyl)-1,2-dihydropyridin-2-one]
< 100 | O=C(c1ccco1)n1nc(-c2cccn(Cc3ccccn3)c2=O)cc1NCc1ccc(F)cc1 [Cmpd 74, 3-(5-[(4-fluorophenyl)methyl]amino-1-[(furan-2-yl)carbonyl]-1H-pyrazol-3-yl)-1-(pyridin-2-ylmethyl)-1,2-dihydropyridin-2-one]
< 100 | O=C(c1ccc(N2CCOCC2)cc1)n1nc(-c2cccn(Cc3ccsc3)c2=O)cc1NCc1ccc(Cl)s1 [Cmpd 217, 3-(5-[(5-chlorothiophen-2-yl)methyl]amino-1-[4-(morpholin-4-yl)phenyl]carbonyl-1H-pyrazol-3-yl)-1-(thiophen-3-ylmethyl)-1,2-dihydropyridin-2-one]
1000 to 10000 | O=c1c(-c2cc(NCc3ccc(Cl)s3)n[nH]2)cccn1Cc1cccnc1 [Cmpd 228, 3-(5-[(5-chlorothiophen-2-yl)methyl]amino-1H-pyrazol-3-yl)-1-(pyridin-3-ylmethyl)-1,2-dihydropyridin-2-one]
< 100 | O=C(c1cccs1)n1nc(-c2cccn(Cc3cccs3)c2=O)cc1NCc1ccc(Cl)s1 [Cmpd 190, 3-(5-[(5-chlorothiophen-2-yl)methyl]amino-1-[(thiophen-2-yl)carbonyl]-1H-pyrazol-3-yl)-1-(thiophen-2-ylmethyl)-1,2-dihydropyridin-2-one]
< 100 | CC(C)(C)C(=O)n1nc(-c2cccn(CC(=O)N3CCOCC3)c2=O)cc1NCc1ccc(Cl)s1 [Cmpd 88, 3-(5-[(5-chlorothiophen-2-yl)methyl]amino-1-(2,2-dimethylpropanoyl)-1H-pyrazol-3-yl)-1-[2-(morpholin-4-yl)-2-oxoethyl]-1,2-dihydropyridin-2-one]
< 100 | O=C(c1ccccc1)n1nc(-c2cccn(Cc3ncccn3)c2=O)cc1NCc1ccc(Cl)s1 [Cmpd 69, 3-(1-benzoyl-5-[(5-chlorothiophen-2-yl)methyl]amino-1H-pyrazol-3-yl)-1-(pyrimidin-2-ylmethyl)-1,2-dihydropyridin-2-one]
< 100 | COc1ccccc1C(=O)n1nc(-c2cccn(Cc3ccoc3)c2=O)cc1NCc1ccc(Cl)s1 [Cmpd 136, 3-(5-[(5-chlorothiophen-2-yl)methyl]amino-1-[(2-methoxyphenyl)carbonyl]-1H-pyrazol-3-yl)-1-(furan-3-ylmethyl)-1,2-dihydropyridin-2-one]
< 100 | COc1ccc(C(=O)n2nc(-c3ccc[nH]c3=O)cc2NCc2ccc(Cl)s2)c(OC)c1 [Cmpd 121, 3-(5-[(5-chlorothiophen-2-yl)methyl]amino-1-[(2,4-dimethoxyphenyl)carbonyl]-1H-pyrazol-3-yl)-1,2-dihydropyridin-2-one]
< 100 | O=C(c1ccsc1)n1nc(-c2ccc[nH]c2=O)cc1NCc1ccc(Cl)s1 [Cmpd 193, 3-(5-[(5-chlorothiophen-2-yl)methyl]amino-1-[(thiophen-3-yl)carbonyl]-1H-pyrazol-3-yl)-1,2-dihydropyridin-2-one]
< 100 | CC(C)(C)C(=O)n1nc(-c2cccn(Cc3ncccn3)c2=O)cc1NCc1ccc(Cl)s1 [Cmpd 85, 3-(5-[(5-chlorothiophen-2-yl)methyl]amino-1-(2,2-dimethylpropanoyl)-1H-pyrazol-3-yl)-1-(pyrimidin-2-ylmethyl)-1,2-dihydropyridin-2-one]
< 100 | CCOC(=O)Cn1cccc(-c2cc(NCc3ccc(Cl)s3)n(C(=O)C(C)(C)C)n2)c1=O [Cmpd 257, ethyl 2-[3-(5-[(5-chlorothiophen-2-yl)methyl]amino-1-(2,2-dimethylpropanoyl)-1H-pyrazol-3-yl)-2-oxo-1,2-dihydropyridin-1-yl]acetate]
< 100 | CC(C)(C)OC(=O)Cn1cccc(-c2cc(NCc3ccc(Cl)s3)n(C(=O)C(C)(C)C)n2)c1=O [Cmpd 261, tert-butyl 2-[3-(5-[(5-chlorothiophen-2-yl)methyl]amino-1-(2,2-dimethylpropanoyl)-1H-pyrazol-3-yl)-2-oxo-1,2-dihydropyridin-1-yl]acetate]
< 100 | O=C(c1ccoc1)n1nc(-c2cccn(CCc3ccccc3)c2=O)cc1NCc1ccc(Cl)s1 [Cmpd 172, 3-(5-[(5-chlorothiophen-2-yl)methyl]amino-1-[(furan-3-yl)carbonyl]-1H-pyrazol-3-yl)-1-(2-phenylethyl)-1,2-dihydropyridin-2-one]
1000 to 10000 | O=C(c1ccccc1N1CCOCC1)n1nc(-c2ccc[nH]c2=O)cc1NCc1ccc(Cl)s1 [Cmpd 205, 3-(5-[(5-chlorothiophen-2-yl)methyl]amino-1-[2-(morpholin-4-yl)phenyl]carbonyl-1H-pyrazol-3-yl)-1,2-dihydropyridin-2-one]
< 100 | COc1ccccc1C(=O)n1nc(-c2cccn(Cc3ccncc3)c2=O)cc1NCc1ccc(Cl)s1 [Cmpd 141, 3-(5-[(5-chlorothiophen-2-yl)methyl]amino-1-[(2-methoxyphenyl)carbonyl]-1H-pyrazol-3-yl)-1-(pyridin-4-ylmethyl)-1,2-dihydropyridin-2-one]
< 100 | COc1ccccc1C(=O)n1nc(-c2cccn(Cc3ncccn3)c2=O)cc1NCc1ccc(Cl)s1 [Cmpd 142, 3-(5-[(5-chlorothiophen-2-yl)methyl]amino-1-[(2-methoxyphenyl)carbonyl]-1H-pyrazol-3-yl)-1-(pyrimidin-2-ylmethyl)-1,2-dihydropyridin-2-one]
> 100000 | CN(C)c1cc(-c2ccc[nH]c2=O)nn1C(=O)c1ccco1 [Cmpd 239, 3-[5-(dimethylamino)-1-[(furan-2-yl)carbonyl]-1H-pyrazol-3-yl]-1,2-dihydropyridin-2-one]
< 100 | O=C(c1ccsc1)n1nc(-c2cccn(Cc3cccnn3)c2=O)cc1NCc1ccc(Cl)s1 [Cmpd 197, 3-(5-[(5-chlorothiophen-2-yl)methyl]amino-1-[(thiophen-3-yl)carbonyl]-1H-pyrazol-3-yl)-1-(pyridazin-3-ylmethyl)-1,2-dihydropyridin-2-one]
< 100 | COCCOc1ccc(C(=O)n2nc(-c3ccc[nH]c3=O)cc2NCc2ccc(Cl)s2)cc1 [Cmpd 206, 3-(5-[(5-chlorothiophen-2-yl)methyl]amino-1-[4-(2-methoxyethoxy)phenyl]carbonyl-1H-pyrazol-3-yl)-1,2-dihydropyridin-2-one]
< 100 | O=C(c1ccoc1)n1nc(-c2cccn(Cc3ccccc3Cl)c2=O)cc1NCc1ccc(Cl)s1 [Cmpd 29, 1-[(2-chlorophenyl)methyl]-3-(5-[(5-chlorothiophen-2-yl)methyl]amino-1-[(furan-3-yl)carbonyl]-1H-pyrazol-3-yl)-1,2-dihydropyridin-2-one]
< 100 | CC(C)(C)C(=O)n1nc(-c2cccn(Cc3ccncc3)c2=O)cc1NCc1ccc(Cl)s1 [Cmpd 84, 3-(5-[(5-chlorothiophen-2-yl)methyl]amino-1-(2,2-dimethylpropanoyl)-1H-pyrazol-3-yl)-1-(pyridin-4-ylmethyl)-1,2-dihydropyridin-2-one]
< 100 | O=C(c1ccccc1Cl)n1nc(-c2cccn(Cc3ncccn3)c2=O)cc1NCc1ccc(Cl)s1 [Cmpd 249, 3-1-[(2-chlorophenyl)carbonyl]-5-[(5-chlorothiophen-2-yl)methyl]amino-1H-pyrazol-3-yl-1-(pyrimidin-2-ylmethyl)-1,2-dihydropyridin-2-one]
< 100 | O=C(c1ccco1)n1nc(-c2cccn(Cc3cccnc3)c2=O)cc1NCc1ccc(Cl)s1 [Cmpd 165, 3-(5-[(5-chlorothiophen-2-yl)methyl]amino-1-[(furan-2-yl)carbonyl]-1H-pyrazol-3-yl)-1-(pyridin-3-ylmethyl)-1,2-dihydropyridin-2-one]
< 100 | CC1(C(=O)n2nc(-c3cccn(Cc4ccncc4)c3=O)cc2NCc2ccc(Cl)s2)CCOCC1 [Cmpd 155, 3-(5-[(5-chlorothiophen-2-yl)methyl]amino-1-[(4-methyloxan-4-yl)carbonyl]-1H-pyrazol-3-yl)-1-(pyridin-4-ylmethyl)-1,2-dihydropyridin-2-one]
< 100 | O=C(c1cccs1)n1nc(-c2cccn(Cc3ccccn3)c2=O)cc1NCc1ccc(Cl)s1 [Cmpd 186, 3-(5-[(5-chlorothiophen-2-yl)methyl]amino-1-[(thiophen-2-yl)carbonyl]-1H-pyrazol-3-yl)-1-(pyridin-2-ylmethyl)-1,2-dihydropyridin-2-one]
< 100 | O=C(c1ccccc1)n1nc(-c2cccn(Cc3ccoc3)c2=O)cc1NCc1ccc(Cl)s1 [Cmpd 64, 3-(1-benzoyl-5-[(5-chlorothiophen-2-yl)methyl]amino-1H-pyrazol-3-yl)-1-(furan-3-ylmethyl)-1,2-dihydropyridin-2-one]
